Data: US20240067651A1 (Biohaven Therapeutics Ltd., priority 2019, published 2024)

How the values were obtained:
[1] = Caco-2 Permeability Assay; assay type: in vitro ADME, human; conditions: human
Outline: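 Bidirectional transport at 37 °C for 90 min, 10 μM donor concentration, with or without Pgp inhibitor, across 21-day Caco-2 monolayers with TEER >600 […] in HEPES-buffered HBSS, pH 7.4. LC-MS/MS of donor and receiver samples gives Papp, B→A/A→B efflux ratio and mass recovery.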

[2] = Stability in Simulated Gastric Fluid (SGF); assay type: in vitro ADME; set-up: key: % parent compound remaining relative to 0-minute sample
Outline: (§1)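 2 μg/mL final; SGF + pepsin pH 1.2 or SIF + pancreatin pH 6.8; 37° C, 150 rpm, 0–60 min. ACN quench with propranolol IS, LC-MS/MS. % parent vs 0 min; t1/2 from ln plot.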

[3] = Stability in Simulated Intestinal Fluid (SIF); assay type: in vitro ADME; set-up: key: % parent compound remaining relative to 0-minute sample
Outline: as §1

Plasma Stability = assay type: in vitro ADME, human
Outline: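 Parent compound quantified by LC-MS/MS after acetonitrile precipitation, reported as percent of control remaining (triplicate). Incubation: 1 hour, 37° C, fresh human plasma, compound at 1 μM.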

[4] = Caco-2, pH 7.4, Caco-2 monolayer
[5] = % @ 1 h (remaining) in simulated gastric fluid
[6] = % @ 1 h (remaining) in simulated intestinal fluid
[7] = % @ 1 h (remaining) in human plasma
[8] = % remaining at 1 h in simulated gastric fluid
[9] = % remaining at 1 h in simulated intestinal fluid
[10] = % remaining at 1 h in human plasma
[11] = Caco-2, pH 7.4, Caco-2 monolayer, the 17th table
[12] = % remaining at 1 h in simulated gastric fluid, the 17th table
[13] = % remaining at 1 h in simulated intestinal fluid, the 17th table
[14] = % remaining at 1 h in human plasma, the 17th table
[15] = Caco-2, pH 7.4, Caco-2 monolayer, the 15th table
[16] = % remaining at 1 h in simulated gastric fluid, the 15th table
[17] = % remaining at 1 h in simulated intestinal fluid, the 15th table
[18] = % remaining at 1 h in human plasma, the 15th table
[19] = Caco-2, pH 7.4, donor 10 μM, 90 minutes, 37° C., direction not given
[20] = % remaining at 1 h, SGF with pepsin pH 1.2, 2 μg/mL, 37° C.
[21] = % remaining at 1 h, SIF with pancreatin pH 6.8, 2 μg/mL, 37° C.
[22] = % remaining at 1 h, human plasma, 1 μM, 37° C.
[23] = simulated gastric fluid, remaining at 1 h
[24] = simulated intestinal fluid, remaining at 1 h
[25] = bare number, no % and no time given

Q: With `CC(C)OCCn1c(SCOC(=O)N(C)C)nc(=O)c2c1ccn2COC(=O)N(C)C` [Example 165, trifluoroacetic acid [2-({[(dimethylcarbamoyl)oxy]methyl}sulfanyl)-4-oxo-1-[2-(propan-2-yloxy)ethyl]-1H,4H,5H-pyrrolo[3,2-d]pyrimidin-5-yl]methyl N,N-dimethylcarbamate] as the molecule, how does the Papp at 90 min, 10 µM [1, 4] read?
A: 2.56 ×10⁻⁶ cm/s

Q: What about the SGF [2, 5] of the same molecule?
A: 84% @ 1 h

Q: And the SIF [3, 6]?
A: 99% @ 1 h

Q: And the “human Plasma stability” value (Plasma Stability; [7])?
A: 97% @ 1 h

Q: For `CC(C)OCCn1c(=S)[nH]c(=O)c2c1ccn2COC(=O)CCCCNC(=O)[C@H](Cc1c[nH]c2ccccc12)NC(=O)OC(C)(C)C.O=C(O)C(F)(F)F` [Example 47], which Papp at 90 min, 10 µM [1, 4] is on record?
A: 9.15 ×10⁻⁶ cm/s

Q: And the SGF [2, 8]?
A: 99% remaining

Q: What about the SIF [3, 9] of the same molecule?
A: 46% remaining

Q: What about the “human Plasma stability” value (Plasma Stability; [10]) of the same molecule?
A: 78% remaining

Q: Which results are given for `CCCCCCOC(=O)OCn1ccc2c1c(=O)nc(S)n2CCOC(C)C` [Example 213]?
A: Papp at 90 min, 10 µM [1, 11]: 3.03 ×10⁻⁶ cm/s; SGF [2, 12]: 76% remaining; SIF [3, 13]: 1% remaining; human Plasma stability (Plasma Stability; [14]): 44% remaining

Q: For `Cc1ccc(OC(=O)OCn2ccc3c2c(=O)[nH]c(=S)n3CCOC(C)C)cc1` [Example 236], which Papp at 90 min, 10 µM [1, 4] is on record?
A: 0.59 ×10⁻⁶ cm/s

Q: And the SGF ([2]; simulated gastric fluid, at 1 h)?
A: 53% remaining

Q: What about the SIF ([3]; simulated intestinal fluid, at 1 h) of the same molecule?
A: 1% remaining at

Q: And the “human Plasma stability” value (Plasma Stability; human plasma, at 1 h)?
A: 1% remaining

Q: Which Papp at 90 min, 10 µM [1, 4] does the source give for `CCN(C)C(=O)OCn1ccc2c1c(=O)nc(SCOC(=O)N(C)C(C)C)n2CCOC(C)C.O=C(O)C(F)(F)F` [Example 170] here?
A: 14.1 ×10⁻⁶ cm/s

Q: And the SGF [2, 5]?
A: 99% @ 1 h

Q: What about the SIF [3, 6] of the same molecule?
A: 92% @ 1 h

Q: And the “human Plasma stability” value (Plasma Stability; [7])?
A: 99% @ 1 h

Q: For `CC(C)NC(=O)OCSc1nc(=O)c2[nH]ccc2n1CCOC(C)C` [Example 196], which Papp at 90 min, 10 µM [1, 15] is on record?
A: 19.5 ×10⁻⁶ cm/s

Q: What about the SGF [2, 16] of the same molecule?
A: 99% remaining

Q: And the SIF [3, 17]?
A: 98% remaining

Q: What about the “human Plasma stability” value (Plasma Stability; [18]) of the same molecule?
A: 99% remaining

Q: For `COC(=O)[C@H](CCCCNC(=O)[C@@H](N)C(C)C)NC(=O)OCn1ccc2c1c(=O)[nH]c(=S)n2CCOC(C)C.O=C(O)C(F)(F)F` [Example 114, trifluoroacetic acid methyl (2S)-6-[(2S)-2-amino-3-methylbutanamido]-2-{[{{4-oxo-1-[2-(propan-2-yloxy)ethyl]-2-sulfanylidene-1H,2H,3H,4H,5H-pyrrolo[3,2-d]pyrimidin-5-yl}methoxy)carbonyl]amino}hexanoate], which Papp at 90 min, 10 µM [1, 19] is on record?
A: 0.102 ×10⁻⁶ cm/s

Q: What about the SGF [2, 20] of the same molecule?
A: 98%

Q: What about the SIF [3, 21] of the same molecule?
A: 89%

Q: What about the “human Plasma stability” value (Plasma Stability; [22]) of the same molecule?
A: 93%

Q: Which results are given for `CSCC[C@H](NC(=O)OC(C)(C)C)C(=O)NCCC(=O)OCn1ccc2c1c(=O)[nH]c(=S)n2CCOC(C)C` [Example 29]?
A: Papp at 90 min, 10 µM [1, 4]: 5.41 ×10⁻⁶ cm/s; SGF [2, 8]: 92% remaining; SIF [3, 9]: 62% remaining; human Plasma stability (Plasma Stability; [10]): 98% remaining

Q: What does the source list for `CC(C)OCCn1c(=S)n(COC(=O)CCCOC(=O)[C@@H](Cc2ccccc2)NC(=O)OC(C)(C)C)c(=O)c2c1ccn2COC(=O)CCCOC(=O)[C@@H](Cc1ccccc1)NC(=O)OC(C)(C)C` [Example 365, (3-{[(4-{[(2R)-2-{[(tert-butoxy)carbonyl]amino}-3-phenylpropanoyl]oxy}butanoyl)oxy]methyl}-4-oxo-1-[2-(propan-2-yloxy)ethyl]-2-sulfanylidene-1H,2H,3H,4H,5H-pyrrolo[3,2-d]pyrimidin-5-yl)methyl 4-{[(2R)-2-{[(tert-butoxy)carbonyl]amino}-3-phenylpropanoyl]oxy}butanoate]?
A: Papp at 90 min, 10 µM [1, 4]: < 0.263 ×10⁻⁶ cm/s; SGF [2, 23]: 85% remaining; SIF [3, 24]: 5% remaining; human Plasma stability (Plasma Stability; human plasma, remaining at 1 h): 11% remaining

Q: Which Papp at 90 min, 10 µM [1, 19] does the source give for `COCCOCCOCC(=O)OCn1ccc2c1c(=O)[nH]c(=S)n2CCOC(C)C` [Example 87] here?
A: 7.05 ×10⁻⁶ cm/s

Q: And the SGF [2, 20]?
A: 97%

Q: What about the SIF [3, 21] of the same molecule?
A: 28%

Q: And the “human Plasma stability” value (Plasma Stability; [22])?
A: 0%

Q: What does the source list for `CC(C)OCCn1c(=S)[nH]c(=O)c2c1ccn2COC(=O)CCNC(=O)[C@@H](N)[C@@H](C)O.O=C(O)C(F)(F)F` [Example 40]?
A: Papp at 90 min, 10 µM [1, 4]: < 0.235 ×10⁻⁶ cm/s; SGF [2, 8]: 100%; SIF [3, 9]: 86% remaining; human Plasma stability (Plasma Stability; [10]): 88% remaining

Q: Which results are given for `CC(C)OCCn1c(SCOC(=O)N(C)CCc2ccccc2)nc(=O)c2[nH]ccc21.O=C(O)C(F)(F)F` [Example 175]?
A: Papp at 90 min, 10 µM [1, 4]: 30.9 ×10⁻⁶ cm/s; SGF [2, 5]: 99% @ 1 h; SIF [3, 6]: 92% @ 1 h; human Plasma stability (Plasma Stability; [7]): 95% @ 1 h

Q: For `CC(C)OCCn1c(=S)[nH]c(=O)c2c1ccn2COC(=O)CCCCNC(=O)[C@@H]1CCC(=O)N1C.O=C(O)C(F)(F)F` [Example 63], which Papp at 90 min, 10 µM [1, 4] is on record?
A: 0.2 ×10⁻⁶ cm/s

Q: And the SGF [2, 8]?
A: 97% remaining

Q: What about the SIF [3, 9] of the same molecule?
A: 98% remaining

Q: What about the “human Plasma stability” value (Plasma Stability; [10]) of the same molecule?
A: 0% remaining

Q: Which Papp at 90 min, 10 µM [1, 4] does the source give for `CC(C)OCCn1c(=S)[nH]c(=O)c2c1ccn2COC(=O)OCCOCCN.O=C(O)C(F)(F)F` [Example 123] here?
A: 2.44 ×10⁻⁶ cm/s

Q: What about the SGF [2, 8] of the same molecule?
A: 97% remaining

Q: And the SIF [3, 9]?
A: 1% remaining at

Q: What about the “human Plasma stability” value (Plasma Stability; [10]) of the same molecule?
A: 65% remaining

Q: For `CCCCCOC(=O)OCn1c(=O)c2c(ccn2COC(=O)OCCCCC)n(CCOC(C)C)c1=S` [Example 218], which Papp at 90 min, 10 µM [1, 11] is on record?
A: 0.65 ×10⁻⁶ cm/s

Q: And the SGF [2, 12]?
A: 100% remaining

Q: What about the SIF [3, 13] of the same molecule?
A: 2% remaining

Q: What about the “human Plasma stability” value (Plasma Stability; [14]) of the same molecule?
A: 74% remaining

Q: What does the source list for `CC(C)C[C@@H](N)C(=O)OCCC(=O)OCn1ccc2c1c(=O)[nH]c(=S)n2CCOC(C)C.O=C(O)C(F)(F)F` [Example 368, trifluoroacetic acid 3-oxo-3-({4-oxo-1-[2-(propan-2-yloxy)ethyl]-2-sulfanylidene-1H,2H,3H,4H,5H-pyrrolo[3,2-d]pyrimidin-5-yl}methoxy)propyl (2R)-2-amino-4-methylpentanoate]?
A: Papp at 90 min, 10 µM [1, 4]: 0.12 ×10⁻⁶ cm/s; SGF [2, 23]: 100% remaining; SIF [3, 24]: 1% remaining; human Plasma stability (Plasma Stability; human plasma, remaining at 1 h): 1% remaining

Q: Which Papp at 90 min, 10 µM [1, 19] does the source give for `CC(C)OCCn1c(=S)[nH]c(=O)c2c1ccn2C(C)OC(=O)OC1CCN(C(=O)OC(C)(C)C)CC1` (stereo not drawn) [Example 99, tert-Butyl 4-{[(1-{4-oxo-1-[2-(propan-2-yloxy)ethyl]-2-sulfanylidene-1H,2H,3H,4H,5H-pyrrolo[3,2-d]pyrimidin-5-yl}ethoxy)carbonyl]oxy}piperidine-1-carboxylate] here?
A: 0.111 ×10⁻⁶ cm/s

Q: What about the SGF [2, 20] of the same molecule?
A: 0%

Q: What about the SIF [3, 21] of the same molecule?
A: 0%

Q: And the “human Plasma stability” value (Plasma Stability; [22])?
A: 5%

Q: Which Papp at 90 min, 10 µM [1, 19] does the source give for `CC(C)OCCn1c(SCOC(=O)N(CC(F)(F)F)CC(F)(F)F)nc(=O)c2[nH]ccc21` [Example 96, ({4-oxo-1-[2-(propan-2-yloxy)ethyl]-1H,4H,5H-pyrrolo[3,2-d]pyrimidin-2-yl}sulfanyl)methyl N,N-bis(2,2,2-trifluoroethyl)carbamate] here?
A: 20.3 ×10⁻⁶ cm/s

Q: What about the SGF [2, 25] of the same molecule?
A: 98

Q: What about the SIF [3, 25] of the same molecule?
A: 97

Q: What about the “human Plasma stability” value (Plasma Stability; [22]) of the same molecule?
A: 98% remaining

Q: Which results are given for `CC(C)OCCn1c(SCOC(=O)NCc2ccccc2)nc(=O)c2[nH]ccc21` [Example 192]?
A: Papp at 90 min, 10 µM [1, 15]: 3.84 ×10⁻⁶ cm/s; SGF [2, 16]: 100% remaining; SIF [3, 17]: 50% remaining; human Plasma stability (Plasma Stability; [18]): 97% remaining

Q: For `CC(C)OCCn1c(=S)[nH]c(=O)c2c1ccn2COC(=O)CCCCCCCCCCC(=O)OC(C)C` [Example 262], which Papp at 90 min, 10 µM [1, 4] is on record?
A: < 0.214 ×10⁻⁶ cm/s

Q: What about the SGF ([2]; simulated gastric fluid, after 1 h) of the same molecule?
A: 92% remaining

Q: And the SIF ([3]; simulated intestinal fluid, after 1 h)?
A: 2% remaining

Q: What about the “human Plasma stability” value (Plasma Stability; human plasma, after 1 h) of the same molecule?
A: 41% remaining

Q: For `CC(C)OCCn1c(=S)[nH]c(=O)c2c1ccn2COC(=O)[C@H]1CCN(C(=O)OC(C)(C)C)C1` [Example 130], which Papp at 90 min, 10 µM [1, 4] is on record?
A: 17.6 ×10⁻⁶ cm/s

Q: What about the SGF [2, 8] of the same molecule?
A: 61% remaining

Q: What about the SIF [3, 9] of the same molecule?
A: 64% remaining

Q: And the “human Plasma stability” value (Plasma Stability; [10])?
A: 4% remaining
